Where two headings read alike, the source gives them in different places.
What was measured:
[1] = tested on: A549 (human lung carcinoma); test: MTT cytotoxicity, A549; format: cell-based; details: for SI A549: IC50 normal cells (WI38) / IC50 cancer cells, ns = no selectivity; for IC50: mean ± SD, triplicate
[2] = tested on: HuTu 80 (human duodenal adenocarcinoma); test: MTT cytotoxicity, HuTu 80; format: cell-based; details: for SI HuTu 80: IC50 normal cells (WI38) / IC50 cancer cells, ns = no selectivity; for IC50: mean ± SD, triplicate; for anti-cancer activity against the HuTu 80 cell line relative to doxorubicin: words
HuTu-80 cells [3] = test: Mitochondrial membrane potential, JC-10 flow cytometry; format: cell-based, human; details: for % cells with J-aggregate (red, high membrane potential) / % cells with J-monomer (green, decreased membrane potential): JC-10; for effect on mitochondrial membrane potential: more pronounced with increase of concentration up to IC50
Excerpt: Apoptosis induction by 3a, b, k, j and 4c through the mitochondrial pathway and HuTu-80 cell line was studied by flow cytometry using the fluorescent dye JC-10 from the Mitochondria Membrane Potential Kit. JC-10 accumulated in the mitochondrial matrix and formed aggregates (J-aggregate) with red fluorescence in normal cells with a high mitochondrial membrane potential. The membrane potential decreased in apoptotic cells. JC-10 started to diffuse out from the mitochondria and converts to the monomeric form (J-monomer) and emits green fluorescence. This is recorded with a flow cytometer. […] The process became more pronounced with an increase of 3a, b, 3k, j and 4c concentrations up to IC50 (Figure 5 and Figure 6).
Cells were harvested at 2000 rpm for 5 min and then washed twice with ice-cold PBS, followed by resuspension in JC-10 (10 µg/mL) and incubation at 37 °C for 10 min. After the cells were rinsed three times and suspended in PBS, the JC-10 fluorescence was observed by flow cytometry (Guava easy Cyte, MERCK, NJ, USA).

HuTu-80 cells [4] = test: Induction of apoptosis, annexin V/propidium iodide flow cytometry; format: cell-based, human; details: IC50/2, 48-h incubation
Procedure: Apoptosis is one of the most significant mechanisms used for screening new anti-cancer agents. The apoptosis-inducing effect was carried out on lead compounds 3a, b, k, j and 4c showing high selectivity against HuTu-80 cells. The studies were carried out by flow cytometry at concentrations IC50/2 and IC50 (Figure 4). […] The percentage of apoptotic cells in early and late phases was slightly changed with increase compound concentration up to IC50.
HuTu 80 cells at 1 × 10^6 cells/well in a final volume of 2 mL were seeded into six-well plates. After 48 h of incubation, various concentrations of compounds 3a,b and 3k were added to wells.
The cells were harvested at 2000 rpm for 5 min and, then, washed twice with ice-cold PBS, followed by resuspension in binding buffer. Next, the samples were incubated with 5 μL of annexin V-Alexa Fluor 647 (Sigma–Aldrich, St. Louis, MO, USA) and 5 μL of propidium iodide for 15 min at room temperature in the dark. Finally, the cells were analyzed by flow cytometry (Guava easy Cyte, MERCK, Rahway, NJ, USA) within 1 h. The experiments were repeated three times.

[5] = tested on: T98G glioblastoma cell line; test: MTT cytotoxicity, T98G; format: cell-based, human; details: for SI T98G: IC50 normal cells (WI38) / IC50 cancer cells, ns = no selectivity; for IC50: MTT, mean ± SD, triplicate
[6] = tested on: PC3 (human prostate adenocarcinoma); test: MTT cytotoxicity, PC3; details: for SI PC3: IC50 normal cells (WI38) / IC50 cancer cells, ns = no selectivity; for IC50: mean ± SD, triplicate; for cytotoxic effect against the PC3 line relative to doxorubicin: words
[7] = tested on: MCF-7 (human breast adenocarcinoma); test: MTT cytotoxicity, MCF-7; format: cell-based; details: for SI MCF-7: IC50 normal cells (WI38) / IC50 cancer cells, ns = no selectivity; for IC50: mean ± SD, triplicate
human cancer cell lines = test: MTT cytotoxicity, summary statements over several cell lines; format: cell-based; details: for IC50: Homo sapiens, HuTu80, lines other than HuTu 80 and PC3, read-out: IC50 concentration values against other human cancer lines
[8] = tested on: M-HeLa (human cervix epitheloid carcinoma); test: MTT cytotoxicity, M-HeLa; format: cell-based; details: for SI M-HeLa: IC50 normal cells (WI38) / IC50 cancer cells, ns = no selectivity; for IC50: MTT, mean ± SD, triplicate
[9] = tested on: WI38 (diploid human embryo lung); test: MTT cytotoxicity, normal cells WI38; format: cell-based; details: mean ± SD, triplicate, read-out: WI38 IC50 (normal cell line)
HuTu-80 cells [10] = test: Intracellular ROS production, CellROX Deep Red flow cytometry; format: cell-based, human; details: for CellROX Deep Red fluorescence intensity (ROS production): control 600; for ROS generation: compared to 3a and 3b and control (untreated cells)
Excerpt: Increasing the production of reactive oxygen species (ROS) by compounds characterizes the mitochondrial apoptotic pathway. Mitochondria are a potential source and target of ROS. ROS lead to disruption of mitochondrial functions and, as a consequence, to irreversible cell damage. In this regard, the effect of test compounds in HuTu-80 cells on ROS production, using flow cytometry analysis and CellROX® Deep Red flow cytometry kit was investigated. Data presented in Figure 7 show a significant increase in CellROX® Deep Red fluorescence intensity. This indicates an increase in ROS production in the presence of the tested compounds.
ROS generation was investigated using flow cytometry assay and CellROX® Deep Red flow cytometry kit. For this HuTu 80 cells were harvested at 2000 rpm for 5 min and then washed twice with ice-cold PBS, followed by resuspension in 0.1 mL of medium without FBS, to which was added 0.2 μL of Cell ROX® Deep Red and incubated at 37 °C for 30 min After three times washing the cells and suspending them in PBS, the production of ROS in the cells was immediately monitored using flow cytometer Guava easy Cyte, MERCK, NJ, USA).

[11] = In vitro rhodamine B release, dialysis bag diffusion method; format: physicochemical; details: aqueous solution without nanoparticles; phosphate buffer 0.025 M, pH 7.4, 37 °C
Procedure: The monitoring of rhodamine B release from liposomes was performed using the dialysis bag diffusion method. Dialysis bags retain liposomes and allow the released rhodamine B to diffuse into the medium. The bags were soaked in Milli-Q water for 12 h before use. Then, 0.4 mL of liposomes were poured into the dialysis bag. The two bag ends were sealed with clamps. The bags were then placed in a vessel containing 100 mL of 0.025 M sodium phosphate buffer pH 7.4, the receiving phase. The vessel was placed in a thermostatic shaker (New Brunswick, NJ, USA) at 37 °C, under a stirring rate of 150 rpm. At predetermined time intervals, 0.5 mL of samples were withdrawn, and their absorbance at 554 nm was measured using Perkin Elmer λ35 (Perkin Elmer Instruments, Norwalk, CT, USA). All samples were analyzed in triplicate. The extinction coefficient of rhodamine B is 106,089 M^−1 cm^−1 at pH = 7.4.

[12] = Homo sapiens, read-out: IC50 PC3, MTT

| Compound | SI A549 [1] | SI HuTu 80 [2] | % cells with J-aggregate (red, high membrane potential) (HuTu-80 cells [3]; IC50, 48 h) [%] | % cells with J-monomer (green, decreased membrane potential) (HuTu-80 cells [3]; IC50, 48 h) [%] | % cells with J-aggregate (red, high membrane potential) (HuTu-80 cells [3]; IC50/2, 48 h) [%] | % cells with J-monomer (green, decreased membrane potential) (HuTu-80 cells [3]; IC50/2, 48 h) [%] | effect on mitochondrial membrane potential (HuTu-80 cells [3]) | apoptosis induction (HuTu-80 cells [4]) | SI T98G [5] | SI PC3 [6] | SI MCF-7 [7] | SI M-HeLa [8] | CellROX Deep Red fluorescence intensity (ROS production) (HuTu-80 cells [10]; IC50, 48 h) | CellROX Deep Red fluorescence intensity (ROS production) (HuTu-80 cells [10]; IC50/2, 48 h) | IC50 ([1]; Homo sapiens, A549, MTT) [nM] | IC50 ([2]; Homo sapiens, HuTu80, MTT) [nM] | IC50 ([5]; Homo sapiens, T98G) [nM] | IC50 [6, 12] [nM] | IC50 ([7]; Homo sapiens, MCF7, MTT) [nM] | IC50 ([8]; Homo sapiens, M-HeLa) [nM] | further results |
| --- | --- | --- | --- | --- | --- | --- | --- | --- | --- | --- | --- | --- | --- | --- | --- | --- | --- | --- | --- | --- | --- |
| C=CCOCC(O)C[P+](c1ccccc1)(c1ccccc1)c1ccccc1.[I-] (centres unmarked) [4c, (3-(Allyloxy)-2-hydroxypropyl)triphenylphosphonium iodide] | 1.4 | 12.3 | 51.1 | 46.9 | 88.5 | 11.3 | decrease the mitochondrial membrane potential | actively induce apoptosis | 1.8 | 5.3 | 1.4 | 3.4 | 4300 | 3200 | – | – | – | – | – | – | IC50 ([1]; MTT): 2600 ± 200 nM; IC50 ([2]; MTT): 300 ± 20 nM; anti-cancer activity against the HuTu 80 cell line relative to doxorubicin [2]: comparable to doxorubicin activity; IC50 [5]: 2000 ± 100 nM; IC50 ([6]; read-out: IC50 PC3, MTT): 700 ± 60 nM; cytotoxic effect against the PC3 line relative to doxorubicin [6]: two times higher than doxorubicin; IC50 ([7]; MTT): 2700 ± 200 nM; IC50 (human cancer cell lines): 1100 to 3700 nM; IC50 [8]: 1100 ± 90 nM; IC50 ([9]; MTT): 3700 ± 300 nM; ROS generation (HuTu-80 cells [10]): most active to generate ROS |
| CCN(CC)c1ccc2c(-c3ccccc3C(=O)O)c3ccc(=[N+](CC)CC)cc-3oc2c1 [Rhodamine B] | – | – | – | – | – | – | – | – | – | – | – | – | – | – | – | – | – | – | – | – | time of release of 50% Rhodamine B [11]: ≤ 20 min |
| OC(CBr)C[P+](c1ccccc1)(c1ccccc1)c1ccccc1 (centres unmarked) [3b, (3-Bromo-2-hydroxypropyl)triphenylphosphonium trifluoromethanesulfonate] | ns | 5 | 48.1 | 51.9 | 54.5 | 45.5 | decrease the mitochondrial membrane potential | actively induce apoptosis | ns | ns | ns | ns | 1580 | 1200 | > 100000 | 3000 ± 100 | 56000 ± 4500 | 23300 ± 1900 | 34000 ± 2600 | 30100 ± 2400 | IC50 ([9]; Homo sapiens, WI-38, MTT): 13800 ± 1100 nM |
| COc1cccc2c1C(=O)c1c(O)c3c(c(O)c1C2=O)C[C@@](O)(C(=O)CO)C[C@@H]3O[C@H]1C[C@H](N)[C@H](O)[C@H](C)O1 [Dox, doxorubicin, reference compound] | 1.1 | 4 | – | – | – | – | – | – | ns | ns | 2 | ns | – | – | 700 ± 500 | 200 ± 10 | 2000 ± 100 | 1400 ± 100 | 400 ± 30 | 2100 ± 100 | selectivity relative to the leading compounds (human cancer cell lines): significantly inferior to the leading compounds in selectivity; IC50 ([9]; Homo sapiens, WI-38, MTT): 800 ± 70 nM |
| CCCCCCCCCCOCC(O)C[P+](c1ccccc1)(c1ccccc1)c1ccccc1 (centres unmarked) [3j, (3-(Decyloxy)-2-hydroxypropyl)triphenylphosphonium trifluoromethanesulfonate] | ns | 6.2 | 50.1 | 48.2 | 89.6 | 10.4 | decrease the mitochondrial membrane potential | actively induce apoptosis | 2 | 5.2 | 1.1 | 3 | 3700 | 2500 | 3700 ± 300 | 500 ± 30 | 1700 ± 100 | 600 ± 50 | 2900 ± 200 | 1100 ± 90 | anti-cancer activity against the HuTu 80 cell line relative to doxorubicin [2]: comparable to doxorubicin activity; cytotoxic effect against the PC3 line relative to doxorubicin [6]: two times higher than doxorubicin; IC50 (human cancer cell lines): 1100 to 3700 nM; IC50 ([9]; Homo sapiens, WI-38, MTT): 3100 ± 200 nM; ROS generation (HuTu-80 cells [10]): most active to generate ROS |

Reference: paper PMC8588467, “Rational Design 2-Hydroxypropylphosphonium Salts as Cancer Cell Mitochondria-Targeted Vectors: Synthesis, Structure, and Biological Properties” (Molecules, 2021)
